Data as given in PubChem BioAssay AID248 (DTP/NCI, 2004).
“And” between values parts separate entries of the source, which are not always exact repeats. Equal entries are not always repeated. Inconclusive results and toxic doses are left out. Rule as the data show it: active = T/C of 150% or more; inactive = T/C below 125%.

Test system: L1210 leukemia ip in BDF1 mice, survival T/C
Test: NCI In Vivo Anticancer Drug Screen. Data for tumor model L1210 Leukemia (intraperitoneal) in B6D2F1 (BDF1) mice
Conditions: endpoint: mean survival time, higher = longer survival
Outline: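 Tumor cells were implanted, animals were treated, and survival was followed. The result divides the treated measurement by the vehicle-control measurement.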

[1] = dose: 100.0 mg/kg/injection, schedule: Q04DX002 (ip), vehicle: other
[2] = dose: 200.0 mg/kg/injection, schedule: Q04DX002 (ip), vehicle: other
[3] = dose: 100.0 mg/kg/injection, schedule: Q04DX003 (ip), vehicle: Klucel (hydroxypropylcellulose) (HPC)
[4] = dose: 200.0 mg/kg/injection, schedule: Q04DX003 (ip), vehicle: Klucel (hydroxypropylcellulose) (HPC)
[5] = dose: 400.0 mg/kg/injection, schedule: Q04DX003 (ip), vehicle: Klucel (hydroxypropylcellulose) (HPC)
[6] = dose: 100.0 mg/kg/injection, schedule: Q04DX003 (ip), vehicle: saline with Tween-80
[7] = dose: 200.0 mg/kg/injection, schedule: Q04DX003 (ip), vehicle: saline with Tween-80
[8] = dose: 400.0 mg/kg/injection, schedule: Q04DX003 (ip), vehicle: saline with Tween-80
[9] = dose: 100.0 mg/kg/injection, schedule: Q01DX001 (ip), vehicle: saline
[10] = dose: 200.0 mg/kg/injection, schedule: Q01DX001 (ip), vehicle: saline
[11] = dose: 400.0 mg/kg/injection, schedule: Q01DX001 (ip), vehicle: saline
[12] = dose: 100.0 mg/kg/injection, schedule: Q01DX009 (ip), vehicle: saline with Tween-80
[13] = dose: 200.0 mg/kg/injection, schedule: Q01DX009 (ip), vehicle: saline with Tween-80
[14] = dose: 400.0 mg/kg/injection, schedule: Q01DX009 (ip), vehicle: saline with Tween-80

Measured: T/C

O=C(CCN1CC1)Nc1ccccc1
inactive: dose: 3.12 mg/kg/injection, schedule: Q01DX009 (ip), vehicle: Klucel (hydroxypropylcellulose) (HPC) 110 % of control | dose: 6.25 mg/kg/injection, schedule: Q01DX009 (ip), vehicle: Klucel (hydroxypropylcellulose) (HPC) 108 % of control | dose: 12.5 mg/kg/injection, schedule: Q01DX009 (ip), vehicle: Klucel (hydroxypropylcellulose) (HPC) 106 % of control | dose: 12.5 mg/kg/injection, schedule: Q04DX003 (ip), vehicle: Klucel (hydroxypropylcellulose) (HPC) 107 % of control | dose: 25.0 mg/kg/injection, schedule: Q01DX009 (ip), vehicle: Klucel (hydroxypropylcellulose) (HPC) 106 % of control | dose: 25.0 mg/kg/injection, schedule: Q04DX003 (ip), vehicle: Klucel (hydroxypropylcellulose) (HPC) 91 % of control | dose: 50.0 mg/kg/injection, schedule: Q01DX009 (ip), vehicle: Klucel (hydroxypropylcellulose) (HPC) 102 % of control | dose: 50.0 mg/kg/injection, schedule: Q04DX003 (ip), vehicle: Klucel (hydroxypropylcellulose) (HPC) 95 % of control | dose: 100.0 mg/kg/injection, schedule: Q04DX003 (ip), vehicle: saline 91 % of control

C1CCC2C3CCC(C3)C2CC1 (stereo not given)
inactive: [1] 122 % of control | [2] 92 % of control | dose: 400.0 mg/kg/injection, schedule: Q04DX002 (ip), vehicle: other 88 % of control

O=[N+]([O-])c1ccc(/C=C/c2ncc[nH]2)o1
inactive: [3] 92 % of control | [4] 92 % of control

Nc1nc(=S)[nH]c(N)c1N
inactive: dose: 125.0 mg/kg/injection, schedule: Q01DX Z (ip), vehicle: methylcellulose (MC) 93 % of control

CC1(C)[C@@H]2CC[C@@]1(CS(=O)(=O)O)C(=O)C2
inactive: [1] 95 % of control | [2] 92 % of control

CCN(N=Nc1ccc(C)cc1)N=Nc1ccc(C)cc1
inactive: dose: 100.0 mg/kg/injection, schedule: Q01DX009 (ip), vehicle: Klucel (hydroxypropylcellulose) (HPC) 93 % of control | [3] 100 % of control | dose: 200.0 mg/kg/injection, schedule: Q01DX009 (ip), vehicle: Klucel (hydroxypropylcellulose) (HPC) 88 % of control | [4] 100 % of control | dose: 400.0 mg/kg/injection, schedule: Q01DX009 (ip), vehicle: Klucel (hydroxypropylcellulose) (HPC) 88 % of control | [5] 93 % of control

CCS(=O)(=O)CCNC(=O)NS(=O)(=O)c1ccc(C)cc1
inactive: [6] 97 % of control | [7] 97 % of control | [8] 90 % of control

C(CCCCc1nn[nH]n1)CCCc1nn[nH]n1
inactive: [3] 94 % of control | [4] 103 % of control | [5] 91 % of control

COc1nc2ccccc2n1C1OC(CO)C(O)C1O (stereo not given)
inactive: [9] 97 % of control | [10] 100 % of control | [11] 105 % of control

CN(C)CCN1C(=O)c2ccccc2N(C)c2ccccc21
inactive: dose: 25.0 mg/kg/injection, schedule: Q04DX003 (ip), vehicle: saline 96 % of control | dose: 50.0 mg/kg/injection, schedule: Q04DX003 (ip), vehicle: saline 96 % of control

O=C(Nc1ccc(Cl)cc1[N+](=O)[O-])Oc1ccccc1C(=O)Nc1ccccc1
inactive: [12] 92 % of control | dose: 100.0 mg/kg/injection, schedule: Q04DX002 (ip), vehicle: saline with Tween-80 93 % of control and 95 % of control | [6] 97 % of control | [13] 91 % of control | dose: 200.0 mg/kg/injection, schedule: Q04DX002 (ip), vehicle: saline with Tween-80 98 % of control and 88 % of control | [7] 95 % of control | [14] 89 % of control and 92 % of control | dose: 400.0 mg/kg/injection, schedule: Q04DX002 (ip), vehicle: saline with Tween-80 97 % of control and 91 % of control | [8] 93 % of control

C(=NC(c1ccccc1)(c1ccccc1)c1ccccc1)=NC(c1ccccc1)(c1ccccc1)c1ccccc1
inactive: dose: 25.0 mg/kg/injection, schedule: Q01DX009 (ip), vehicle: gum acacia 88 % of control | dose: 50.0 mg/kg/injection, schedule: Q01DX009 (ip), vehicle: gum acacia 90 % of control | dose: 100.0 mg/kg/injection, schedule: Q04DX003 (ip), vehicle: gum acacia 93 % of control | dose: 200.0 mg/kg/injection, schedule: Q01DX009 (ip), vehicle: gum acacia 88 % of control | dose: 200.0 mg/kg/injection, schedule: Q04DX003 (ip), vehicle: gum acacia 91 % of control | dose: 400.0 mg/kg/injection, schedule: Q01DX009 (ip), vehicle: gum acacia 88 % of control | dose: 400.0 mg/kg/injection, schedule: Q04DX003 (ip), vehicle: gum acacia 86 % of control

Nc1nc(N)c(C=Nc2ccc(I)cc2)c(Nc2ccc(I)cc2)n1
inactive: dose: 400.0 mg/kg/injection, schedule: Q01DX001 (ip), vehicle: alcohol 86 % of control

CC(=O)OC1c2sccc2Cc2ccsc21
inactive: dose: 100.0 mg/kg/injection, schedule: Q01DX001 (ip), vehicle: saline with Tween-80 91 % of control | dose: 200.0 mg/kg/injection, schedule: Q01DX001 (ip), vehicle: saline with Tween-80 105 % of control

O=C1NC(=O)c2ccc(S)c3cccc1c23
inactive: [12] 94 % of control | [13] 90 % of control | [14] 97 % of control

NC(N)=NN=C(c1ccc([N+](=O)[O-])s1)c1ccc([N+](=O)[O-])s1
inactive: dose: 15.0 mg/kg/injection, schedule: Q01DX Z (ip), vehicle: carboxymethylcellulose (CMC) 97 % of control | dose: 30.0 mg/kg/injection, schedule: Q01DX Z (ip), vehicle: carboxymethylcellulose (CMC) 95 % of control | dose: 60.0 mg/kg/injection, schedule: Q01DX Z (ip), vehicle: carboxymethylcellulose (CMC) 97 % of control and 105 % of control | dose: 120.0 mg/kg/injection, schedule: Q01DX Z (ip), vehicle: carboxymethylcellulose (CMC) 94 % of control and 95 % of control | dose: 240.0 mg/kg/injection, schedule: Q01DX Z (ip), vehicle: carboxymethylcellulose (CMC) 100 % of control | dose: 480.0 mg/kg/injection, schedule: Q01DX Z (ip), vehicle: carboxymethylcellulose (CMC) 90 % of control

COC1=C(F)C(=O)C(OC)=C(F)C1=O
inactive: dose: 1.2 mg/kg/injection, schedule: Q01DX001 (ip), vehicle: alcohol 101 % of control | dose: 2.5 mg/kg/injection, schedule: Q01DX001 (ip), vehicle: alcohol 97 % of control | dose: 5.0 mg/kg/injection, schedule: Q01DX001 (ip), vehicle: alcohol 103 % of control

Cn1c(=O)c2c(nc(OC3CCC=CO3)n2C)n(C)c1=O (stereo not given)
inactive: dose: 50.0 mg/kg/injection, schedule: Q01DX001 (ip), vehicle: other 98 % of control | dose: 100.0 mg/kg/injection, schedule: Q01DX001 (ip), vehicle: other 95 % of control | dose: 200.0 mg/kg/injection, schedule: Q01DX001 (ip), vehicle: other 88 % of control

CC(C)=CCC/C(C)=C/COC(=O)Cc1ccccc1
inactive: [12] 103 % of control | [6] 97 % of control | [13] 110 % of control | [7] 98 % of control | [14] 103 % of control | [8] 103 % of control

Cc1cc(=O)n2c(n1)Nc1ccccc1C2
inactive: [9] 87 % of control | [10] 93 % of control | [11] 87 % of control

C[C@]12CCC(=O)C=C1CC[C@@H]1[C@@H]2[C@@H](O)C[C@@]2(C)[C@H]1CC[C@]2(O)C(=O)COC(=O)COCC(=O)O
inactive: dose: 100.0 mg/kg/injection, schedule: Q04DX003 (sc), vehicle: Klucel (hydroxypropylcellulose) (HPC) 101 % of control | dose: 200.0 mg/kg/injection, schedule: Q04DX003 (sc), vehicle: Klucel (hydroxypropylcellulose) (HPC) 102 % of control | dose: 400.0 mg/kg/injection, schedule: Q04DX003 (sc), vehicle: Klucel (hydroxypropylcellulose) (HPC) 101 % of control
